The assay concerns type I collagen deposition in primary lung fibroblasts derived from human tissue. Description: High throughput type I collagen deposition (scar-in-a-jar) high content screening assay. It counts as cell-based. Conditions: Primary lung fibroblast, 72 h, human pulmonary fibroblasts, 384-well, TGF-β 1 ng/ml 72 h, total collagen area, read-out: mean pIC50, high throughput type I collagen deposition (scar-in-a-jar) (converted). As for the experimental part:
Highthroughput, cellular type I collagen deposition was measured by adapting a published method; scar-in-a-jar (Chen et al., 2009) to primary lung fibroblasts derived from human tissue and combining with high content analysis to permit fluorescent quantification of collagen deposited in the extracellular matrix (ECM). The human biological samples were sourced ethically and their research use was in accordance with the terms of the informed consents.
Test compounds were dissolved in 100% DMSO to give 10 mM (stocks) and further diluted to give half log dilutions to generate an 11 point concentration response curve. 1 ul was transferred to 384-well plates (Greiner Group, Kremsmunster, Austria, Catalogue No Greine 781280r).
Human pulmonary fibroblasts were maintained in DMEM media (Gibco, Catalogue No 21969) supplemented with 4 mM L-glutamine (Gibco Catalogue No 25030-024) and 10% heat inactivated FBS (Gibco, Catalogue No 10099-141) at 37° C. in 10% CO2. Cells were harvested and resuspended at 4×10^6 cells/ml in a T175 cell culture flask (BD Falcom, Catalogue No: 353112) containing 50 mL of culture media. After 4 days 37° C. in 10% CO2, cells were harvested and seeded at 4000 cells per well ([…]) into 384-well plates (BD Falcon, Catalogue No 353962Greiner) in assay media (0.4% heat inactivated FBS, 4 mM L-glutamine). Plates were sealed with breathable seals (Sigma, Catalogue No. BEM-1). Assay plates were incubated for 72 h at 37° C. in 10% CO2.
Assay media was supplemented with 112.5 mg/ml Ficoll 70 (Sigma, Catalogue No F2878), 75 mg/ml Ficoll 400 (Sigma, Catalogue No F4375) and 50 µg/ml ascorbic acid (Sigma, Catalogue No A8960). 30 μL assay media were added to 1 l compound ([…] compound concentration in 1% DMSO). Diluted compounds (10 μL) were transferred to plates containing cells and incubated for 3 h at 37° C. in 10% CO2. Transforming growth factor (TGF)-β (R&D systems, Catalogue No 100-B/CF) was reconstituted to give 10 µg/mL (stock) and further diluted in assay media containing Ficoll and ascorbic acid (1 in 3333). TGF-β was added to cell plates (1 ng/ml final) and cells incubated for 72 h at 37° C. in 10% CO2.
Media was aspirated from cells and 30 µL/well 100% ice-cold methanol added and incubated at RT for 5 min to fix cells. Methanol was aspirated and cells washed with PBS (3×). To block and permeabilise, cells were incubated with PBS containing 1% BSA and 0.1% Triton X 100 for 20 min, followed by PBS wash (3×). Cells were incubated with mouse anti human type I collagen monoclonal antibody (Sigma, Catalogue No C2456) diluted 1:1000 in PBS for 24 h at 4° C. Cells were washed with PBS containing 0.1% Tween-20 (3×) and incubated with secondary alexa fluor 488 goat-anti-mouse antibody (Invitrogen, Catalogue No A11001, 1 in 500 in PBS) and Hoechst 33342 (Sigma, Catalogue No H21492), 1 in 1000 in PBS) for 1 h at RT, prior to washing with PBS containing 0.1% Tween (×4).
Type I collagen immunoreactivity was detected using the INCell 2000 Analyzer (GE Healthcare, INcell 2000) set to excitation and emission wavelengths for DAPI and FITC with laser focus and exposure adjusted to appropriate levels. Images were imported and analysed using Columbus software (Perkin Elmer) and computational algorithms to quantify “total collagen area” and “cell count”.
Data analysis was performed by determining 0/inhibition values for test compounds relative to the minimum (media only) and maximum responses (TGF-βstimulation) with non-linear regression analysis to determine IC50 values for test compounds.

Take `CC[C@H]1COCCN1c1cc(C2(S(C)(=O)=O)CCN(C)CC2)cc(-c2ccc3[nH]c(C)cc3n2)n1` [Example 19, (S)-3-ethyl-4-(6-(2-methyl-1H-pyrrolo[3,2-b]pyridin-5-yl)-4-(1-methyl-4-(methylsulfonyl)piperidin-4-yl)pyridin-2-yl)morpholine]: the IC50 is 20 to 3160 nM.

`CC[C@H]1COCCN1c1cc(C2(S(C)(=O)=O)CCNCC2)nc(-c2ccc3[nH]c(C)cc3n2)n1` [Example 17, (3S)-3-ethyl-4-[6-(4-methanesulfonylpiperidin-4-yl)-2-{2-methyl-1H-pyrrolo[3,2-b]pyridin-5-yl}pyrimidin-4-yl]morpholine]: the IC50 is 20 to 3160 nM.

With `CC[C@H]1COCC(=O)N1c1cc(CS(C)(=O)=O)cc(-c2ccc3[nH]c(CNC)cc3n2)n1` [Example 28, (S)-5-ethyl-4-(6-(2-((methylamino)methyl)-1H-pyrrolo[3,2-b]pyridin-5-yl)-4-((methylsulfonyl)methyl)pyridin-2-yl)morpholin-3-one], the IC50 was 20 to 3160 nM.

Turning to `CC[C@H]1COCCN1c1cc(C2(S(C)(=O)=O)CCN(C)CC2)cc(-c2ccc3[nH]c(CO)cc3n2)n1` [Example 20, (S)-(5-(6-(3-ethylmorpholino)-4-(1-methyl-4-(methylsulfonyl)piperidin-4-yl)pyridin-2-yl)-1H-pyrrolo[3,2-b]pyridin-2-yl)methanol], the IC50 was 20 to 3160 nM.

As to `CC[C@H]1COCC(=O)N1c1cc(CS(=O)(=O)N(C)C)cc(-c2ccc3[nH]c(CNC)cc3n2)n1` [Example 7, (S)-1-(2-(3-ethyl-5-oxomorpholino)-6-(2-((methylamino)methyl)-1H-pyrrolo[3,2-b]pyridin-5-yl)pyridin-4-yl)-N,N-dimethylmethanesulfonamide], the IC50 is 20 to 3160 nM.
